Several values for one entry are separate records, joined by “and”; a condition that tells them apart may be missing. Identical values can stand only once. Like-named read-outs stand apart in the source and are kept apart here.
Tests used:
Assay in all cases: Kinase selectivity profile assay
Assay type in all cases: biochemical
[1] = molecular target: T1, ALK5/TGFBR1 (Homo sapiens, UniProt P36897); conditions: 500 nM; relative to DMSO; read-out: Residual enzymatic activity
T1 construct: purchased Reaction Biology Corporation
Method in brief: (§1)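 Radiometric kinase assay run by a standard protocol. Unbound phosphate was removed by washing filters in phosphoric acid, and product radioactivity gave percent remaining kinase activity versus DMSO vehicle reactions. Run in duplicate.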

[2] = molecular target: T2, HIPK4 (Homo sapiens, UniProt Q8NE63); conditions: 500 nM; relative to DMSO; read-out: Residual enzymatic activity
T2 construct: purchased Reaction Biology Corporation
Method in brief: as §1

[3] = molecular target: T3, BTK (Homo sapiens, UniProt Q06187); conditions: 500 nM; relative to DMSO; read-out: Residual enzymatic activity
T3 construct: purchased Reaction Biology Corporation
Method in brief: as §1

[4] = molecular target: T4, BRAF (Homo sapiens, UniProt P15056); conditions: 500 nM; relative to DMSO; read-out: Residual enzymatic activity
T4 construct: purchased Reaction Biology Corporation
Method in brief: as §1

[5] = molecular target: T5, c-MET (Homo sapiens, UniProt P08581); conditions: 500 nM; relative to DMSO; read-out: Residual enzymatic activity
T5 construct: purchased Reaction Biology Corporation
Method in brief: as §1

[6] = molecular target: T6, MLCK/MYLK (Homo sapiens, UniProt Q15746); conditions: 500 nM; relative to DMSO; read-out: Residual enzymatic activity
T6 construct: purchased Reaction Biology Corporation
Method in brief: as §1

[7] = molecular target: T7, PKAcb (Homo sapiens, UniProt P22694); conditions: 500 nM; relative to DMSO; read-out: Residual enzymatic activity
T7 construct: purchased Reaction Biology Corporation
Method in brief: as §1

[8] = molecular target: T8, DLK/MAP3K12 (Homo sapiens, UniProt Q12852); conditions: 500 nM; relative to DMSO; read-out: Residual enzymatic activity
T8 construct: purchased Reaction Biology Corporation
Method in brief: as §1

[9] = molecular target: T9, PKCb2 (Homo sapiens, UniProt P05771); conditions: 500 nM; relative to DMSO; read-out: Residual enzymatic activity
T9 construct: purchased Reaction Biology Corporation
Method in brief: as §1

[10] = molecular target: T10, GCK/MAP4K2 (Homo sapiens, UniProt Q12851); conditions: 500 nM; relative to DMSO; read-out: Residual enzymatic activity
T10 construct: purchased Reaction Biology Corporation
Method in brief: as §1

[11] = molecular target: T11, FGFR3 (Homo sapiens, UniProt P22607); conditions: 500 nM, relative to DMSO; for remaining activity at 0.5 µM: read-out: Residual enzymatic activity
T11 construct: purchased Reaction Biology Corporation
Method in brief: as §1

[12] = molecular target: T12, DDR2 (Homo sapiens, UniProt Q16832); conditions: 500 nM; relative to DMSO; read-out: Residual enzymatic activity
T12 construct: purchased Reaction Biology Corporation
Method in brief: as §1

[13] = molecular target: T13, MEKK2 (Homo sapiens, UniProt Q9Y2U5); conditions: 500 nM; relative to DMSO; read-out: Residual enzymatic activity
T13 construct: purchased Reaction Biology Corporation
Method in brief: as §1

[14] = molecular target: T14, PLK4/SAK (Homo sapiens, UniProt O00444); conditions: 500 nM; relative to DMSO; read-out: Residual enzymatic activity
T14 construct: purchased Reaction Biology Corporation
Method in brief: as §1

[15] = molecular target: T15, SIK1 (Homo sapiens, UniProt P57059); conditions: for remaining activity at 0.5 µM: 500 nM, relative to DMSO, read-out: Residual enzymatic activity
T15 construct: purchased Reaction Biology Corporation (Malvern, PA, USA)
Method in brief: as §1

[16] = molecular target: T16, MSSK1/STK23 (Homo sapiens, UniProt Q9UPE1); conditions: 500 nM; relative to DMSO; read-out: Residual enzymatic activity
T16 construct: purchased Reaction Biology Corporation
Method in brief: as §1

[17] = molecular target: T17, FLT3 (Homo sapiens, UniProt P36888); conditions: for remaining activity at 0.5 µM: 500 nM, relative to DMSO, read-out: Residual enzymatic activity
T17 construct: purchased Reaction Biology Corporation (assay service)
T17 sequence (P36888 27-993): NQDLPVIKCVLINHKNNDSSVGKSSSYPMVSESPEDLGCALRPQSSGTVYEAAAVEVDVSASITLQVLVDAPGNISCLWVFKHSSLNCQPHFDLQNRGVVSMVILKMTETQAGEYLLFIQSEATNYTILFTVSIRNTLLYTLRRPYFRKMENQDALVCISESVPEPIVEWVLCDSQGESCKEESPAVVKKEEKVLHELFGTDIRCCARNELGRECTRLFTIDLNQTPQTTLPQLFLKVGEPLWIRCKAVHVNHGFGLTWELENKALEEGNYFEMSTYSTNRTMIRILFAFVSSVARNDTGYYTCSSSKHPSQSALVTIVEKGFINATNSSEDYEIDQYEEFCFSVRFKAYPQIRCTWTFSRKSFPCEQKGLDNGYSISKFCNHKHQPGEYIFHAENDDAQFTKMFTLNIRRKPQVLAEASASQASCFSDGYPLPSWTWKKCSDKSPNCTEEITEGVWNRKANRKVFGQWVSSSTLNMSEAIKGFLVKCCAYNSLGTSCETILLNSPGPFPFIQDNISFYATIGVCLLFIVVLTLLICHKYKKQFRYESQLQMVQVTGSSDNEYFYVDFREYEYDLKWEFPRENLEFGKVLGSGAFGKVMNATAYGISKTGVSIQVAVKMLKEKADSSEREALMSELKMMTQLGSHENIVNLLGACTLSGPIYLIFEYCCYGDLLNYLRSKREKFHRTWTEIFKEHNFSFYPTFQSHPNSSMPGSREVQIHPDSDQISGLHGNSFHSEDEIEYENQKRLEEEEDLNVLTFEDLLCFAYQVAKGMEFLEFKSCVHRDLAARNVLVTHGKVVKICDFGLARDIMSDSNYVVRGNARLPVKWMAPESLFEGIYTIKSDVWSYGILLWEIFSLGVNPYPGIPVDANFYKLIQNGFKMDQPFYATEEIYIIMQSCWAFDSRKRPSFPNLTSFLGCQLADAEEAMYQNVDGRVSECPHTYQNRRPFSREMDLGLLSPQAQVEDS
Method in brief: as §1

[18] = molecular target: T18, PKD2/PRKD2 (Homo sapiens, UniProt Q9BZL6); conditions: 500 nM; relative to DMSO; read-out: Residual enzymatic activity
T18 construct: purchased Reaction Biology Corporation
Method in brief: as §1

[19] = molecular target: T19, CTK/MATK (Homo sapiens, UniProt P42679); conditions: 500 nM; relative to DMSO; read-out: Residual enzymatic activity
T19 construct: purchased Reaction Biology Corporation
Method in brief: as §1

[20] = molecular target: T20, FLT4/VEGFR3 (Homo sapiens, UniProt P35916); conditions: for remaining activity at 0.5 µM: 500 nM, relative to DMSO, read-out: Residual enzymatic activity
T20 construct: purchased Reaction Biology Corporation (assay service)
Method in brief: as §1

[21] = molecular target: T21, JAK3 (Homo sapiens, UniProt P52333); conditions: 500 nM; relative to DMSO; read-out: Residual enzymatic activity
T21 construct: purchased Reaction Biology Corporation
Method in brief: as §1

[22] = molecular target: T22, ASK1/MAP3K5 (Homo sapiens, UniProt Q99683); conditions: 500 nM; relative to DMSO; read-out: Residual enzymatic activity
T22 construct: purchased Reaction Biology Corporation
Method in brief: as §1

[23] = molecular target: T23, ERK7/MAPK15 (Homo sapiens, UniProt Q8TD08); conditions: read-out: Residual enzymatic activity
T23 construct: purchased Reaction Biology Corporation
Method in brief: as §1

[24] = molecular target: T24, PIM3 (Homo sapiens, UniProt Q86V86); conditions: 500 nM; relative to DMSO; read-out: Residual enzymatic activity
T24 construct: purchased Reaction Biology Corporation
Method in brief: as §1

[25] = molecular target: T25, EPHA7 (Homo sapiens, UniProt Q15375); conditions: 500 nM, relative to DMSO; for remaining activity at 0.5 µM: read-out: Residual enzymatic activity
T25 construct: purchased Reaction Biology Corporation
Method in brief: as §1

[26] = molecular target: T26, CDK3/cyclin E (Homo sapiens, UniProt Q00526); conditions: 500 nM; relative to DMSO; read-out: Residual enzymatic activity
T26 construct: purchased Reaction Biology Corporation
Method in brief: as §1

[27] = molecular target: T27, Haspin (Homo sapiens, UniProt Q8TF76); conditions: 500 nM; relative to DMSO; read-out: Residual enzymatic activity
T27 construct: purchased Reaction Biology Corporation
Method in brief: as §1

[28] = 10-dose mode, threefold serial dilution from 10 μM

T11 sequence (P22607 23-806): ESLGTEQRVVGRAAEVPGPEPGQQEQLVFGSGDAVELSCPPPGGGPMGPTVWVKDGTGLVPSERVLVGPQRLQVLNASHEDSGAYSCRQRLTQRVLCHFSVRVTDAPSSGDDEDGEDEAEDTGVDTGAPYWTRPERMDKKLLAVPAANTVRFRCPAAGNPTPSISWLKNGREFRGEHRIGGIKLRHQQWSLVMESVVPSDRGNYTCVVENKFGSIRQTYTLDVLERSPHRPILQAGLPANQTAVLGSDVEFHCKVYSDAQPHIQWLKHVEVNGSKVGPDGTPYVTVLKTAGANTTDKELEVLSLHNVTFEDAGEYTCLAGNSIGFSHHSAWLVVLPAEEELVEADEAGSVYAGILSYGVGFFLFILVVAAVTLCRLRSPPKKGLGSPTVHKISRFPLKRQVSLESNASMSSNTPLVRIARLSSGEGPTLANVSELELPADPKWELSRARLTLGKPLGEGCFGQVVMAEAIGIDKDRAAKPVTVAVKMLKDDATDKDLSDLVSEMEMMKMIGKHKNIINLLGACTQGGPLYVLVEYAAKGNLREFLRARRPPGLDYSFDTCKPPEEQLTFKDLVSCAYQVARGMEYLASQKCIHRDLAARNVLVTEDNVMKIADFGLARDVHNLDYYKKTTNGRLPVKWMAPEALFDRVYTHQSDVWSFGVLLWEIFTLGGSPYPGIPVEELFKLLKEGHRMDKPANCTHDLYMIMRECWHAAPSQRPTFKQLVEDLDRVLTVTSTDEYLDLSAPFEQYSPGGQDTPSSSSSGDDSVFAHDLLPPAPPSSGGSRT
T15 sequence (P57059 whole entry): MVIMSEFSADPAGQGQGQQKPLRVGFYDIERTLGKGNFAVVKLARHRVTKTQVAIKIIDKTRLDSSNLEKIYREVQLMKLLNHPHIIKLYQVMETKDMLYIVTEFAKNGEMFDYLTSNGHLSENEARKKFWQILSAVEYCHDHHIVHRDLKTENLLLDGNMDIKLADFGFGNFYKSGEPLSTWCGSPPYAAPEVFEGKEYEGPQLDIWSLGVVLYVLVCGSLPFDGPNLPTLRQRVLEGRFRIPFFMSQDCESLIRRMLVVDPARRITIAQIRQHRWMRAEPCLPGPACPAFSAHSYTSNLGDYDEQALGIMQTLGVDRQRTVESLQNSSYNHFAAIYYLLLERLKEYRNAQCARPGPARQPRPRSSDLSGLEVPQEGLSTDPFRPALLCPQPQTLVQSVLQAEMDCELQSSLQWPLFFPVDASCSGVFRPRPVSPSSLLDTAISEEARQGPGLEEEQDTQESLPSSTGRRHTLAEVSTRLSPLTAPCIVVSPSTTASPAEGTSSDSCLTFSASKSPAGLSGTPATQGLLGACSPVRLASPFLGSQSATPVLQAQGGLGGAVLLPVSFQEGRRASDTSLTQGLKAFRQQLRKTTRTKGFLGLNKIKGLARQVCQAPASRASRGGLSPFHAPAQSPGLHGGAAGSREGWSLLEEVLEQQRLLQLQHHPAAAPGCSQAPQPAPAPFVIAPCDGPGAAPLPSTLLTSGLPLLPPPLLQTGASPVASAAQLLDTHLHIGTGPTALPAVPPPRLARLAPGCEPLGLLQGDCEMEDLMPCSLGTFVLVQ
T20 sequence (P35916 25-1363): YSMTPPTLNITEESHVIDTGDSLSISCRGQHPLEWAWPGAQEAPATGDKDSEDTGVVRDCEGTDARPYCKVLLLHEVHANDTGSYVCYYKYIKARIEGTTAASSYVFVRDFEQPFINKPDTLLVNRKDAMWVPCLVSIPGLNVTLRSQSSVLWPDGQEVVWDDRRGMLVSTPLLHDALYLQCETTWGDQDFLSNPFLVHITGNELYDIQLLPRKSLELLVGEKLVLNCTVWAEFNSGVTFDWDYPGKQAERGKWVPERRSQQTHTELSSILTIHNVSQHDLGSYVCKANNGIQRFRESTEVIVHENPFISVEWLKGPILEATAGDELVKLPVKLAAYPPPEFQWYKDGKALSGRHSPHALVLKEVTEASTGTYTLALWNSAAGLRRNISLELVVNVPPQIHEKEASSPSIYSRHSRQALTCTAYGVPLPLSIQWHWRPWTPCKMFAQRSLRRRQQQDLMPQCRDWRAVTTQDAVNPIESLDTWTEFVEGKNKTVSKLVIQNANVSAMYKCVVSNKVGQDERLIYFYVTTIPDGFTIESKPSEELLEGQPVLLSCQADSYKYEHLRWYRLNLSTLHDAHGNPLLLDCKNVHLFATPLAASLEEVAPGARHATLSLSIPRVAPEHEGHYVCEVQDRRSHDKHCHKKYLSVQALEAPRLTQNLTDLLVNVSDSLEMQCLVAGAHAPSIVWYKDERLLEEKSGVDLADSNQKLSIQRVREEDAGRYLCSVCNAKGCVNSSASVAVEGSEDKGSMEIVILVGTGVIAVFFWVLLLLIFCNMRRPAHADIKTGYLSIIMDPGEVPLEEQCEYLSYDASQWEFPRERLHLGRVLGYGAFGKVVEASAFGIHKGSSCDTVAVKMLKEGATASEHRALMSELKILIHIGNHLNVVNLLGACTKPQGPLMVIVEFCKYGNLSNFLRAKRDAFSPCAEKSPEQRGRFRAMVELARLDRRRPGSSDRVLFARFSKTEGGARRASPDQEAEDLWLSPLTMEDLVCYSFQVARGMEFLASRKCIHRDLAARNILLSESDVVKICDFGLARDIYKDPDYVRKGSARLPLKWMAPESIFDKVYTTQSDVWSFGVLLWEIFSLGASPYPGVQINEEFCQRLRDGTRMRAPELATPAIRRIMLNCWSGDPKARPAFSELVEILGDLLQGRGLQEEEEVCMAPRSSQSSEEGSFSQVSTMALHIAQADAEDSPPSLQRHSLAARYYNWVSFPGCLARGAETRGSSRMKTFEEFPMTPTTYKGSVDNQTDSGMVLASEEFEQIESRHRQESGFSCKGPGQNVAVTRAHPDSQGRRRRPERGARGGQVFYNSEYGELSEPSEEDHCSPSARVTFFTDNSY
T25 sequence (Q15375 28-998): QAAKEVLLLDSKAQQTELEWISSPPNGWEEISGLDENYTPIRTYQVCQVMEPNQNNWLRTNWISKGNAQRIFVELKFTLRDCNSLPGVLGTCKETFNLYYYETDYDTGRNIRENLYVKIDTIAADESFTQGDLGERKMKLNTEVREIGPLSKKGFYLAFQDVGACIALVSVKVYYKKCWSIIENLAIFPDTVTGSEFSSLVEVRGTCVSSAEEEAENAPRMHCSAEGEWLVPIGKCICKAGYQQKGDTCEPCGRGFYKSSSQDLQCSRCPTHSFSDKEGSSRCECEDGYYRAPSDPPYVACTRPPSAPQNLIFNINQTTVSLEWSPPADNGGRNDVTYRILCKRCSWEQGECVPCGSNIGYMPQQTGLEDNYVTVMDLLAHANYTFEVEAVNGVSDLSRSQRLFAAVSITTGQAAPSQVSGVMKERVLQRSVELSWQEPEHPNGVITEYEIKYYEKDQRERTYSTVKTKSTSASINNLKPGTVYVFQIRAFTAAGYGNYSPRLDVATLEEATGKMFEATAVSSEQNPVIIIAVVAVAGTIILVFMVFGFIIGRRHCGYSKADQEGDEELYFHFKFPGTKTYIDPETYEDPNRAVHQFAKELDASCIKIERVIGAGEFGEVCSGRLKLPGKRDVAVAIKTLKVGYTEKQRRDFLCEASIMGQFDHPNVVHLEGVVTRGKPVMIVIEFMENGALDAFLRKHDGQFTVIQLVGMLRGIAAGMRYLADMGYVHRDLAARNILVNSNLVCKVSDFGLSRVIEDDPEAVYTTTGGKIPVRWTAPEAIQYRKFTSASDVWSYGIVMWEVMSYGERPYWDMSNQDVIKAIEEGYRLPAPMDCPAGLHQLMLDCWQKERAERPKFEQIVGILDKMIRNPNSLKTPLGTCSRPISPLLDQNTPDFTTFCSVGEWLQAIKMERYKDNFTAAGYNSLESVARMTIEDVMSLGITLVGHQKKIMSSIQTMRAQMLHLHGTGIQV
T19 sequence (P42679 whole entry): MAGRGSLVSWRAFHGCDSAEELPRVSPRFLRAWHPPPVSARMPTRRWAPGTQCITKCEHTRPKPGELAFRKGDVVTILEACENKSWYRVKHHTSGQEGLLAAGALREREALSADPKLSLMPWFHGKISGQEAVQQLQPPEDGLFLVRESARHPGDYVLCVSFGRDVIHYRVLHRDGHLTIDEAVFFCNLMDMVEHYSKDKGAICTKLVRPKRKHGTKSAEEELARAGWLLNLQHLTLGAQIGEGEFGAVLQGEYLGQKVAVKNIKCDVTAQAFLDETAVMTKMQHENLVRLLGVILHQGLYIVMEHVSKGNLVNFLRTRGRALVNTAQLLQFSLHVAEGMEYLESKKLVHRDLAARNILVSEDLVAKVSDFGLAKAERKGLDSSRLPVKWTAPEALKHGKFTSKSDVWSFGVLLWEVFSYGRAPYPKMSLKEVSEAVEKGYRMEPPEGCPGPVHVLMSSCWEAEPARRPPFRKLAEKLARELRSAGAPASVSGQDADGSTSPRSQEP
T23 sequence (Q8TD08 whole entry): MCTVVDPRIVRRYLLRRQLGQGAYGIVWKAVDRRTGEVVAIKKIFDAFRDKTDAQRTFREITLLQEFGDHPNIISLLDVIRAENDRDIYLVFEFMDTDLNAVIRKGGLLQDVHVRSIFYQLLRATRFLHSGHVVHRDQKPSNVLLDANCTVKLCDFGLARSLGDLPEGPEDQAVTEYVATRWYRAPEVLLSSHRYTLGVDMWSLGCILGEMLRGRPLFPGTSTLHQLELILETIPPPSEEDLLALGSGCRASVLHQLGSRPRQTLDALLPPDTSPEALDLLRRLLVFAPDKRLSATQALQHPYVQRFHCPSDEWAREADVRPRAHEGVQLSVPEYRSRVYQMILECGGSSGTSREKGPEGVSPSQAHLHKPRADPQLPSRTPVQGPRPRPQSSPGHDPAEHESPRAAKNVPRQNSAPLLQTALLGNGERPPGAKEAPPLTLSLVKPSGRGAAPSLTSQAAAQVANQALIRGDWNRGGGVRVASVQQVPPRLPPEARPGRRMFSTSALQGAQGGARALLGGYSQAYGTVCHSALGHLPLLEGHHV

`COc1cc(Nc2ncnc(Nc3cc4c(cn3)NC(=O)C(C)(C)O4)n2)cc(OC)c1OC` [MT-SYK-03] gave a remaining activity at 0.5 µM [1] of 104%, a remaining activity at 0.5 µM [2] of 112% and a remaining activity at 0.5 µM [3] of 51.3%. For the same compound, the remaining activity at 0.5 µM [4] was 86.7%, the remaining activity at 0.5 µM [5] was 108% and the remaining activity at 0.5 µM [6] was 96.2%. The remaining activity at 0.5 µM [7] was 98.4%, the remaining activity at 0.5 µM [8] was 83.7% and the remaining activity at 0.5 µM [9] was 87.7%. The remaining activity at 0.5 µM [10] was 100%, the Residual enzymatic activity [11] was 57.2% and the remaining activity at 0.5 µM [11] was greater than 54%. It also gave a remaining activity at 0.5 µM [12] of 69%, a remaining activity at 0.5 µM [13] of 106% and a remaining activity at 0.5 µM [14] of 77.8%. For the same compound, the remaining activity at 0.5 µM [15] was 10.1%, the IC50 [15, 28] was 36 nM and 35.9 nM and the remaining activity at 0.5 µM [16] was 106%. For the same compound, the remaining activity at 0.5 µM [17] was 5.7%, the IC50 [17, 28] was 23 nM and the remaining activity at 0.5 µM [18] was 102%. For the same compound, the remaining activity at 0.5 µM [19] was 96.6%, the remaining activity at 0.5 µM [20] was 40.4% and the IC50 [20, 28] was 55.4 nM. For the same compound, the remaining activity at 0.5 µM [21] was 74.7%, the remaining activity at 0.5 µM [22] was 102% and the remaining activity at 0.5 µM ([23]; 500 nM, relative to DMSO) was 100%. It also gave a remaining activity at 0.5 µM [24] of 98.8%, a Residual enzymatic activity [25] of 58.4% and a remaining activity at 0.5 µM [25] greater than 54%. For the same compound, the remaining activity at 0.5 µM [26] was 99% and the remaining activity at 0.5 µM [27] was 101%.
`COc1cc(Nc2ncc(F)c(Nc3ccc4c(n3)NC(=O)C(C)(C)O4)n2)cc(OC)c1OC` [R406, reference compound] was tested, and the remaining activity at 0.5 µM [1] was 108%, the remaining activity at 0.5 µM [2] was 92.9% and the remaining activity at 0.5 µM [3] was 28.8%. For the same compound, the remaining activity at 0.5 µM [4] was 95.9%, the remaining activity at 0.5 µM [5] was 71.4% and the remaining activity at 0.5 µM [6] was 90.5%. It also gave a remaining activity at 0.5 µM [7] of 70.1%, a remaining activity at 0.5 µM [8] of 70.6% and a remaining activity at 0.5 µM [9] of 30.7%. It also gave a remaining activity at 0.5 µM [10] of 77.5%, a remaining activity at 0.5 µM [11] of 17.4% and a remaining activity at 0.5 µM [12] of 31.5%. For the same compound, the remaining activity at 0.5 µM [13] was 56.8%, the remaining activity at 0.5 µM [14] was 17.2% and the remaining activity at 0.5 µM [15] was 7.2%. It also gave a remaining activity at 0.5 µM [16] of 107%, a remaining activity at 0.5 µM [17] of 6.2% and a remaining activity at 0.5 µM [18] of 75.2%. It also gave a remaining activity at 0.5 µM [19] of 120%, a remaining activity at 0.5 µM [20] of 4.9% and a remaining activity at 0.5 µM [21] of 10.4%. For the same compound, the remaining activity at 0.5 µM [22] was 97.1%, the remaining activity at 0.5 µM [23] was 77.1% and the remaining activity at 0.5 µM [24] was 82.8%. The remaining activity at 0.5 µM [25] was 10.5%, the remaining activity at 0.5 µM [26] was 90.3% and the remaining activity at 0.5 µM [27] was 91.5%.

Reference: PMC8632988, “Inhibition of SYK and cSrc kinases can protect bone and cartilage in preclinical models of osteoarthritis and rheumatoid arthritis” (Scientific Reports, 2021)
